Assay results taken from ChEMBL document CHEMBL1201862, “PubChem BioAssay data set” (2004).
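Briefly, cells in 96-well plates were exposed to five compound concentrations for 48 h, and endpoints were estimated by linear interpolation. GI50 = concentration required for 50% inhibition of growth.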 The source made the active and inactive calls. Cut-off read from the data, not from the text of the source: active = GI50 up to about 1.1 µM and inactive = higher.

Columns and labels:
Assay in all cases: NCI tumour cell line growth inhibition, 48 h
[1] = tested on: COLO 205
[2] = tested on: SN12C
[3] = tested on: HL-60
[4] = tested on: HT-29
[5] = tested on: SF-295
[6] = tested on: MDA-MB-435
[7] = tested on: CCRF-CEM
[8] = tested on: SF-539
[9] = tested on: OVCAR-5
[10] = tested on: EKVX
[11] = tested on: SNB-19
[12] = tested on: OVCAR-8
[13] = tested on: NCI/ADR-RES
[14] = tested on: ACHN
[15] = tested on: 786-0
[16] = tested on: HOP-62
[17] = tested on: SR
[18] = tested on: SK-MEL-2
[19] = tested on: HCC 2998

SMILES | GI50 [1] | GI50 [2] | GI50 [3] | GI50 [4] | GI50 [5] | GI50 [6] | GI50 [7] | GI50 [8] | GI50 [9] | GI50 [10] | GI50 [11] | GI50 [12] | GI50 [13] | GI50 [14] | GI50 [15] | GI50 [16] | GI50 [17] | GI50 [18] | GI50 [19]
CCCCCCCCCCCCOC1C(COCCN2CCCC2)OC2OC(C)(C)OC21 (configuration not stated) | 1.82 µM (inactive) | 1.82 µM (inactive) | 0.927 µM (active) | 1.55 µM (inactive) | 1.86 µM (inactive) | 1.76 µM (inactive) | 1.86 µM (inactive) | 1.76 µM (inactive) | 1.51 µM (inactive) | 3.18 µM (inactive) | 2.94 µM (inactive) | 1.64 µM (inactive) | 1.73 µM (inactive) | 3.35 µM (inactive) | 1.68 µM (inactive) | 1.8 µM (inactive) | 1.14 µM (inactive) | 1.71 µM (inactive) | 
COC(=O)c1sc2ncc3c(c2c1N)CC(C)CC3 (configuration not stated) | > 100 µM (inactive) | > 100 µM (inactive) |  | 67 µM (inactive) | > 100 µM (inactive) | > 100 µM (inactive) | > 100 µM (inactive) | > 100 µM (inactive) | > 100 µM (inactive) | > 100 µM (inactive) | > 100 µM (inactive) |  | > 100 µM (inactive) | > 100 µM (inactive) | 81.3 µM (inactive) | > 100 µM (inactive) | > 100 µM (inactive) | > 100 µM (inactive) | > 100 µM (inactive)
CC(C)N/C(=N\C#N)NS(=O)(=O)c1cnccc1NC1CCCCCCC1 | > 100 µM (inactive) | > 100 µM (inactive) |  | > 100 µM (inactive) | > 100 µM (inactive) | > 100 µM (inactive) | > 100 µM (inactive) |  | > 100 µM (inactive) | > 100 µM (inactive) | > 100 µM (inactive) | > 100 µM (inactive) | > 100 µM (inactive) | > 100 µM (inactive) | > 100 µM (inactive) | > 100 µM (inactive) | > 100 µM (inactive) | > 100 µM (inactive) | > 100 µM (inactive)
Oc1ccc(Cl)cc1/N=N\c1c(O)ccc2ccccc12 | > 100 µM (inactive) | > 100 µM (inactive) | 78.9 µM (inactive) | > 100 µM (inactive) | > 100 µM (inactive) | > 100 µM (inactive) | > 100 µM (inactive) |  | > 100 µM (inactive) | > 100 µM (inactive) | > 100 µM (inactive) | > 100 µM (inactive) | > 100 µM (inactive) | > 100 µM (inactive) | > 100 µM (inactive) | > 100 µM (inactive) | > 100 µM (inactive) | > 100 µM (inactive) | 
COc1ccc(-n2c(C)nc3ccc(NC4OCC(OC(C)=O)C(OC(C)=O)C4OC(C)=O)cc3c2=O)cc1 (configuration not stated) | > 100 µM (inactive) | > 100 µM (inactive) | 32.4 µM (inactive) | > 100 µM (inactive) | > 100 µM (inactive) | > 100 µM (inactive) |  |  | > 100 µM (inactive) | > 100 µM (inactive) | > 100 µM (inactive) | > 100 µM (inactive) | > 100 µM (inactive) | > 100 µM (inactive) | > 100 µM (inactive) | > 100 µM (inactive) | > 100 µM (inactive) | > 100 µM (inactive) | 97.1 µM (inactive)
COc1cccc2cc(C(=O)Nc3ccccc3)c(=N)oc12 | > 100 µM (inactive) | > 100 µM (inactive) |  | > 100 µM (inactive) | > 100 µM (inactive) | > 100 µM (inactive) | > 21.8 µM (inactive) | > 100 µM (inactive) | > 100 µM (inactive) | > 100 µM (inactive) | > 75.9 µM (inactive) | > 46.6 µM (inactive) | > 100 µM (inactive) | > 100 µM (inactive) | 15.7 µM (inactive) | > 58.5 µM (inactive) | > 71 µM (inactive) | > 100 µM (inactive) | 
OC(/C(=N/c1ccccc1)c1ccccc1)c1ccccc1 (configuration not stated) | 4.05 µM (inactive) | 10.7 µM (inactive) | 2.94 µM (inactive) | 5.22 µM (inactive) | 9.71 µM (inactive) | 2.75 µM (inactive) | 3.32 µM (inactive) | 11.3 µM (inactive) | 23.1 µM (inactive) | 2.48 µM (inactive) | 6.52 µM (inactive) |  | 23.5 µM (inactive) | 14.4 µM (inactive) | 10.8 µM (inactive) | 17.1 µM (inactive) | 3.53 µM (inactive) | 2.26 µM (inactive) | 
COC(=O)C1(C(=O)OC)N=C(C)OC1/C=C/c1ccccc1 (configuration not stated) | > 100 µM (inactive) | > 100 µM (inactive) | > 100 µM (inactive) |  | > 100 µM (inactive) | > 100 µM (inactive) | 75.3 µM (inactive) |  | > 100 µM (inactive) | > 100 µM (inactive) | > 100 µM (inactive) | > 100 µM (inactive) | > 100 µM (inactive) | > 100 µM (inactive) | > 100 µM (inactive) | > 100 µM (inactive) | > 100 µM (inactive) | > 100 µM (inactive) | > 100 µM (inactive)
